Results on two molecules are retold here after publication PMC11496704, “Synthesis and cytotoxicity studies of novel N-arylbenzo[h]quinazolin-2-amines” (Beilstein Journal of Organic Chemistry, 2024).

The subject of one data set is HuH-7. In words: Cytotoxicity secondary screen (IC50). In kind it is cell-based. As to conditions: Homo sapiens, 48 h exposure, mean of triplicates, NE: no effect. The protocol:
(§1) Cell culture. Skin normal fibroblastic cells are purchased from Lonza (Basel, Switzerland), HuH-7, Caco-2, MDA-MB-231, HCT-116, PC3, MCF7 and NCI-H727 cancer cell lines were obtained from ATCC (American Type Culture Collection). Cells are grown at 37 °C, 5% CO2 in ATCC recommended media: DMEM for HuH-7, MDA-MB-231, MDA-MB-468 and fibroblast, EMEM for MCF7 and CaCo-2, McCoy’s for HCT-116 and RPMI for PC3 and NCI-H727. All culture media are supplemented by 10% of FBS, 1% of penicillin-streptomycin and 2 mM glutamine.
(§2) Both studies have been performed following the protocols described in a previous paper, see ref. [2].

The test system of data set [1] is PC3. In words: Cytotoxicity secondary screen (IC50). In kind it is cell-based. Conditions: Homo sapiens, PC-3; 48 h exposure, mean of triplicates; NE: no effect. The protocol:
as §1, §2

The test system of data set [2] is Caco-2. In words: Cytotoxicity secondary screen (IC50). Format: cell-based. As to conditions: Homo sapiens, 48 h exposure, mean of triplicates, NE: no effect. The protocol:
(§3) Next, we performed a cytotoxicity screening of the nineteen molecules 4a–s, at 25 μM, investigating seven representative cancer cell lines: hepatocellular carcinoma HuH-7, colorectal adenocarcinoma CaCo-2, breast carcinoma MDA-MB-231 and MDA-MB-468, colorectal carcinoma HCT-116, prostate carcinoma PC3 and breast carcinoma MCF7. […] For details see: ref. [2] and Supporting Information File 1, Table S1.
as §1, §2

For the next data set, the system named is HCT-116. In words: Cytotoxicity secondary screen (IC50). In kind it is cell-based. Conditions: Homo sapiens, 48 h exposure, mean of triplicates, NE: no effect. The protocol:
as §3, §1, §2

The subject of data set [3] is Caco-2. In words: Cytotoxicity primary screen (single dose). Format: cell-based. Conditions: reference compound at 0.025 M (so in the source), 48 h exposure, mean of triplicates. The protocol:
as §3, §1, §2
(§4) Table S1: Cytotoxicity studies (single dose at 25µM) of N-arylbenzo[h]quinazolin-2-amines 4a–s
(§5) The toxicity is expressed as the percentage of cell survival (from 100 % to 0 %) over DMSO control after 48 h exposure (mean of triplicates).
(§6) Effect of the solvent (DMSO) was studied at 0.25%.

The subject of another data set is HCT116. In words: Cytotoxicity primary screen (single dose). The arrangement: viability: dose or concentration left out as unconfirmed. Format: cell-based. Conditions: Homo sapiens, HCT-116; 48 h exposure, mean of triplicates; read-out: percentage of cell survival over DMSO control, HCT116. The protocol: as §3, §1, §2, §4, §5, §6
The subject of data set [4] is MCF7. In words: Cytotoxicity primary screen (single dose). Format: cell-based. The arrangement: viability: dose or concentration left out as unconfirmed. Conditions: Homo sapiens, 48 h exposure, mean of triplicates, read-out: percentage of cell survival over DMSO control, MCF7. The protocol: as §3, §1, §2, §4, §5, §6
The subject of a further data set is MDA231. In words: Cytotoxicity primary screen (single dose). Set-up: viability: dose or concentration left out as unconfirmed. As to conditions: Homo sapiens, MDA-MB-231; 48 h exposure, mean of triplicates; read-out: percentage of cell survival over DMSO control, MDA231. Format: cell-based. The protocol: as §3, §1, §2, §4, §5, §6
In data set [5] the test system is PC3. In words: Cytotoxicity primary screen (single dose). Format: cell-based. The arrangement: viability: dose or concentration left out as unconfirmed. Conditions: Homo sapiens, PC-3; 48 h exposure, mean of triplicates; read-out: percentage of cell survival over DMSO control, PC3. The protocol:
as §3, §1, §2, §4, §5, §6

In another data set the test system is MDA-MB-231. In words: Cytotoxicity secondary screen (IC50). In kind it is cell-based. As to conditions: Homo sapiens, 48 h exposure, mean of triplicates, NE: no effect.
In another data set the test system is MDA-MB-468. In words: Cytotoxicity secondary screen (IC50). Format: cell-based. As to conditions: Homo sapiens, 48 h exposure, mean of triplicates, NE: no effect.
In data set [6] the test system is MCF7. In words: Cytotoxicity secondary screen (IC50). As to conditions: Homo sapiens, 48 h exposure, mean of triplicates, NE: no effect. Format: cell-based.
The test system of the next data set is HuH7. In words: Cytotoxicity primary screen (single dose). In kind it is cell-based. The arrangement: dose or concentration left out as unconfirmed. Conditions: Homo sapiens, Huh-7; 48 h exposure, mean of triplicates; read-out: percentage of cell survival over DMSO control, HuH7.
A further data set has as its system DYRKs kinases. Set-up: method as in PMID 33422908, PMID 36234686. Conditions: at 100 μM; cited from earlier work.

Consider `CC(=O)O[C@H]1C(=O)[C@@]2(C)[C@H]([C@H](OC(=O)c3ccccc3)[C@]3(O)C[C@H](OC(=O)[C@H](O)[C@@H](NC(=O)c4ccccc4)c4ccccc4)C(C)=C1C3(C)C)[C@]1(OC(C)=O)CO[C@@H]1C[C@@H]2O` [Taxol, reference compound], for which the IC50 in the data set on HuH-7 was found to be 9 nM; in the data set with PC3 [1] it was 4 nM; in the data set with Caco-2 [2], 70 nM; in the data set on HCT-116, 3 nM; with MDA-MB-231 it was 20 nM; in the data set on MDA-MB-468, 6 nM. Inhibition with MCF7 [6] was half-maximal at 20 nM (IC50). Besides, in the data set on Caco-2 [3], the “percentage of cell survival over DMSO control, CaCo-2” value was determined as 36%. Besides, the viability in the data set on HCT116 worked out at 7%; with MCF7 [4], 27%; in the data set on MDA231 it was 32%; with PC3 [5], 30%; with HuH7, 43%.

For `Cc1ccc(-n2cc(COc3cccc4cnc(Nc5cccc(Cl)c5)nc34)nn2)c([N+](=O)[O-])c1` [DB18], in the data set on DYRKs kinases, the “action against DYRKs kinases” value is on record as “does not show any action”.

The IC50 is the concentration that inhibits the measured activity by half.
